Holding throughout (type): functional
One assay has as its system MCF7. Briefly: Growth inhibition of estrogen-dependent human MCF7 cells.
For a further assay, the system named is MDA-MB-231. Description: Growth inhibition of estrogen-independent human MDA-MB-231 cells.
The test system of a further assay is M21. Description: Growth inhibition of human M21 cells.
The next assay has as its system HT-29. Briefly: Growth inhibition of human HT-29 cells.

Among the data in ChEMBL document CHEMBL2331398, “Synthesis and growth inhibition activity of fluorinated derivatives of tamoxifen” (2013) are GI50 values, retold here.

Consider `F/C(=C(\c1ccccc1)c1ccc(OCCN2CCCCC2)cc1)c1ccccc1`, for which the GI50 is 6.5 µM in the assay with MCF7, 14.4 µM with MDA-MB-231, 5.8 µM in the assay on M21 and 8.7 µM in the assay with HT-29.
Consider `Oc1ccc(/C(=C(\F)c2ccccc2)c2ccc(OCCN3CCCC3)cc2)cc1`, for which the GI50 in the assay on MCF7 was 5.6 µM; in the assay with MDA-MB-231, 10.6 µM; with M21, 6.8 µM; in the assay on HT-29, 8.9 µM.
The corresponding values for `OCc1ccc(/C(=C(\F)c2ccccc2)c2ccc(OCCN3CCCCC3)cc2)cc1` are 7.4 µM, 12.6 µM, 5.9 µM and 6.9 µM.
The corresponding values for `O=Cc1ccc(/C(=C(\F)c2ccccc2)c2ccc(OCCN3CCCCC3)cc2)cc1` are 5.6 µM, 10.6 µM, 4.2 µM and 5.9 µM.
Take `CC/C(=C(\c1ccccc1)c1ccc(OCCN(C)C)cc1)c1ccccc1` [TAMOXIFEN]: the GI50 turned out to be 18.8 µM in the assay on MDA-MB-231, 11 µM in the assay on M21 and 9.5 µM with HT-29.
Consider `CN(C)CCOc1ccc(/C(=C(/F)c2ccccc2)c2ccc(O)cc2)cc1`, for which the GI50 in the assay on MCF7 came out at 3.6 µM; in the assay on MDA-MB-231, 7.3 µM; in the assay on M21, 4.4 µM; in the assay on HT-29, 8.7 µM.
Take `Oc1ccc(/C(=C(\F)c2ccccc2)c2ccc(OCCN3CCCCC3)cc2)cc1`: the GI50 came to 8.4 µM in the assay with MCF7, 25.8 µM in the assay with MDA-MB-231, 15.9 µM in the assay on M21 and 8.9 µM in the assay on HT-29.
With `CN(C)CCOc1ccc(/C(=C(/F)c2ccccc2)c2ccccc2)cc1`, the GI50 is 10.4 µM in the assay on MCF7, 22.2 µM in the assay on MDA-MB-231, 13.5 µM in the assay with M21 and 10.5 µM in the assay with HT-29.
`Oc1ccc(C(=C(F)c2cccc(C(F)(F)F)c2)c2ccccc2)cc1`: the GI50 with MCF7 was found to be 71.7 µM; in the assay on MDA-MB-231, 105 µM; in the assay with M21, 89.6 µM; in the assay on HT-29, 59.8 µM.
Turning to `F/C(=C(/c1ccccc1)c1ccc(OCCN2CCCCC2)cc1)c1ccccc1`, the GI50 was determined as 8.8 µM in the assay on MCF7, 12.5 µM in the assay with MDA-MB-231, 5.6 µM in the assay with M21 and 7.3 µM in the assay on HT-29.
The matching figures for `Oc1ccc(C(=C(F)c2ccccc2)c2ccccc2)cc1` (mixture of isomers): 21.3 µM, 46.9 µM, 53 µM and 32.8 µM.
The matching figures for `F/C(=C(\c1ccccc1)c1ccc(OCCN2CCCC2)cc1)c1ccccc1`: 41.7 µM, greater than 100 µM, 44 µM and 40.3 µM.

For orientation: GI50 means the concentration that inhibits growth by half.
